Measured values published in ChEMBL document CHEMBL1914302, “The structure-antituberculosis activity relationships study in a series of 5-aryl-2-thio-1,3,4-oxadiazole derivatives” (2011).

Legend:
[1] = tested on: Mycobacterium tuberculosis; assay: Antimycobacterial activity against Mycobacterium tuberculosis H37Rv ATCC 27294 assessed as growth inhibition at 6.25 ug/mL after 4 days by microplate alamar blue assay; type: functional; conditions: H37Rv ATCC 27294, 96 h, read-out: GI
[2] = tested on: Mycobacterium tuberculosis; assay: Antimycobacterial activity against Mycobacterium tuberculosis H37Rv ATCC 27294 assessed as growth inhibition at 12.5 ug/mL after 4 days by microplate alamar blue assay; type: functional; conditions: H37Rv ATCC 27294, 96 h, read-out: GI

| SMILES | inhibition of growth at 6.25 µg/mL [1] | inhibition of growth at 12.5 µg/mL [2] |
| --- | --- | --- |
| S=C=Nc1ccc(-c2nnc(SCc3ccncc3)o2)cc1 | 27% | – |
| O=C(CSc1nnc(-c2cccc(N=C=S)c2)o1)c1ccc(Br)cc1 | 0% | – |
| C=CCNC(=S)Nc1ccc(-c2nnc(S)o2)cc1 | 6% | – |
| S=C(Nc1cccc(-c2nnc(S)o2)c1)Nn1cnnc1 | 13% | – |
| Cc1ccc(NC(=S)Nc2ccc(-c3nnc(S)o3)cc2)cc1 | 5% | – |
| NN=C(S)Nc1cccc(-c2nnc(S)o2)c1 | 0% | – |
| OCCNC(=S)Nc1ccc(-c2nnc(SCc3ccncc3)o2)cc1 | 25% | – |
| CSc1nnc(-c2cccc(NC(N)=S)c2)o1 | 25% | – |
| CN(C)NC(=S)Nc1ccc(-c2nnc(S)o2)cc1 | 9% | – |
| S=C=Nc1ccc(-c2nnc(S)o2)cc1 | 2% | – |
| NC(=S)Nc1cccc(-c2nnc(SCC(=O)c3ccc(F)cc3)o2)c1 | 19% | – |
| O=C(CSc1nnc(-c2cccc(NC(=S)NCCO)c2)o1)c1ccc(F)cc1 | 0% | – |
| CN(C)NC(=S)Nc1cccc(-c2nnc(S)o2)c1 | 5% | – |
| CSc1nnc(-c2ccc(NC(N)=S)cc2)o1 | 78% | – |
| OCCNC(=S)Nc1ccc(-c2nnc(S)o2)cc1 | 9% | – |
| O=C(CSc1nnc(-c2ccc(NC(=S)NCCO)cc2)o1)c1ccc(Cl)cc1Cl | – | 98% |
| OCCNC(=S)Nc1ccc(-c2nnc(Sc3ncccn3)o2)cc1 | 14% | – |
| C=CCNC(=S)Nc1cccc(-c2nnc(S)o2)c1 | 0% | – |
| CSc1nnc(-c2ccc(NC(=S)Nn3cnnc3)cc2)o1 | 58% | – |
| NC(=S)Nc1cccc(-c2nnc(SCC(=O)c3ccc(Cl)cc3)o2)c1 | 0% | – |
| S=C=Nc1ccc(-c2nnc(Sc3ncccn3)o2)cc1 | 14% | – |

| SMILES | inhibition of growth at 6.25 µg/mL [1] | inhibition of growth at 12.5 µg/mL [2] |
| --- | --- | --- |
| O=C(CSc1nnc(-c2cccc(N=C=S)c2)o1)c1ccc(Cl)cc1 | 0% | – |
| CSc1nnc(-c2cccc(NC(=S)Nc3ccc(C)cc3)c2)o1 | 21% | – |
| NC(=S)Nc1ccc(-c2nnc(Sc3ncccn3)o2)cc1 | 87% | – |
| O=C(CSc1nnc(-c2cccc(N=C=S)c2)o1)c1ccc(F)cc1 | 5% | – |
| O=C(CSc1nnc(-c2ccc(NC(=S)NCCO)cc2)o1)c1ccccc1 | – | 96% |
| C=CCSc1nnc(-c2cccc(N=C=S)c2)o1 | 3% | – |
| CSc1nnc(-c2ccc(NC(=S)NCCO)cc2)o1 | 67% | – |
| OCCNC(=S)Nc1ccc(-c2nnc(SCc3ccccc3)o2)cc1 | – | 97% |
| CSc1nnc(-c2cccc(NC(S)=NN)c2)o1 | 0% | – |
| CSc1nnc(-c2cccc(NC(=S)Nn3cnnc3)c2)o1 | 58% | – |
| CSc1nnc(-c2cccc(NC(=S)N3CCOCC3)c2)o1 | 0% | – |
| O=C(CSc1nnc(-c2cccc(N=C=S)c2)o1)c1ccc2ccccc2c1 | 0% | – |
| CSc1nnc(-c2cccc(NC(=S)NN(C)C)c2)o1 | 8% | – |
| Cc1ccc(NC(S)=Nc2cccc(-c3nnc(S)o3)c2)cc1 | 18% | – |
| CCNC(=S)Nc1ccc(-c2nnc(S)o2)cc1 | 0% | – |
| NC(=S)Nc1ccc(-c2nnc(SCc3ccccc3)o2)cc1 | – | 91% |
| NC(=S)Nc1ccc(-c2nnc(SCc3ccncc3)o2)cc1 | – | 97% |
| O=C(CSc1nnc(-c2cccc(N=C=S)c2)o1)c1ccc(Cl)cc1Cl | 0% | – |
| NC(=S)Nc1cccc(-c2nnc(SCC(=O)c3ccc4ccccc4c3)o2)c1 | 16% | – |
| CNC(=S)Nc1ccc(-c2nnc(S)o2)cc1 | 0% | – |
| NC(=S)Nc1cccc(-c2nnc(SCCc3ccccc3)o2)c1 | 16% | – |

| SMILES | inhibition of growth at 6.25 µg/mL [1] | inhibition of growth at 12.5 µg/mL [2] |
| --- | --- | --- |
| CNC(=S)Nc1cccc(-c2nnc(SCC(=O)c3ccc4ccccc4c3)o2)c1 | 0% | – |
| Cc1ccc(C(=O)CSc2nnc(-c3cccc(NC(=S)N(C)C)c3)o2)cc1 | 10% | – |
| CSc1nnc(-c2ccc(NC(=S)Nc3ccc(C)cc3)cc2)o1 | 17% | – |
| NC(=S)Nc1cccc(-c2nnc(SCC(=O)c3ccc(Br)cc3)o2)c1 | 6% | – |
| O=C(CSc1nnc(-c2ccc(N=C=S)cc2)o1)c1ccccc1 | 22% | – |
| S=C(Nc1cccc(-c2nnc(S)o2)c1)N1CCCCC1 | 13% | – |
| CSc1nnc(-c2ccc(NC(=S)N3CCOCC3)cc2)o1 | 0% | – |
| S=C=Nc1ccc(-c2nnc(SCc3ccccc3)o2)cc1 | 20% | – |
| S=C=Nc1cccc(-c2nnc(S)o2)c1 | 9% | – |
| O=C(CSc1nnc(-c2cccc(NC(=S)NCCO)c2)o1)c1ccc(Cl)cc1Cl | 0% | – |
| NC(=S)Nc1cccc(-c2nnc(SCC(=O)c3ccccc3)o2)c1 | 0% | – |
| O=C(CSc1nnc(-c2ccc(NC(=S)NCCO)cc2)o1)c1ccc(F)cc1 | 90% | – |
| CN(C)C(=S)Nc1cccc(-c2nnc(SCC(=O)c3ccc(Cl)cc3Cl)o2)c1 | 1% | – |
| C=CCSc1nnc(-c2ccc(NC(N)=S)cc2)o1 | – | 98% |
| NC(S)=Nc1cccc(-c2nnc(S)o2)c1 | 13% | – |
| NC(=S)Nc1ccc(-c2nnc(SCC(=O)c3ccc(Cl)cc3Cl)o2)cc1 | – | 93% |
| CC(C)=NNC(=S)Nc1cccc(-c2nnc(S)o2)c1 | 16% | – |
| O=C(CSc1nnc(-c2ccc(N=C=S)cc2)o1)c1ccc(Cl)cc1Cl | 2% | – |
| OCCNC(=S)Nc1cccc(-c2nnc(SCCc3ccccc3)o2)c1 | 13% | – |
| O=C(CSc1nnc(-c2cccc(NC(=S)NCCO)c2)o1)c1ccc(Br)cc1 | 17% | – |
| S=C=Nc1cccc(-c2nnc(SCc3ccccc3)o2)c1 | 0% | – |

| SMILES | inhibition of growth at 6.25 µg/mL [1] | inhibition of growth at 12.5 µg/mL [2] |
| --- | --- | --- |
| O=C(CSc1nnc(-c2ccc(N=C=S)cc2)o1)c1ccc(F)cc1 | 12% | – |
| C=CCSc1nnc(-c2ccc(NC(=S)NCCO)cc2)o1 | – | 96% |
| CN(C)C(=S)Nc1cccc(-c2nnc(SCC(=O)c3ccccc3)o2)c1 | 9% | – |
| O=C(CSc1nnc(-c2cccc(NC(=S)NCCO)c2)o1)c1ccccc1 | 12% | – |
| O=C(CSc1nnc(-c2cccc(NC(=S)NCCO)c2)o1)c1ccc2ccccc2c1 | 0% | – |
| S=C=Nc1cccc(-c2cnc(SCCc3ccccc3)o2)c1 | 0% | – |
| NC(=S)Nc1cccc(-c2nnc(SCc3ccccc3)o2)c1 | 0% | – |
| C=CCSc1nnc(-c2ccc(N=C=S)cc2)o1 | 56% | – |
| CSc1nnc(-c2ccc(N=C=S)cc2)o1 | 37% | – |
| CSc1nnc(-c2cccc(NC(=S)NCCO)c2)o1 | 8% | – |
| CSc1nnc(-c2ccc(NC(=S)NN)cc2)o1 | 0% | – |
| NC(=S)Nc1ccc(-c2nnc(SCC(=O)c3ccccc3)o2)cc1 | 61% | – |
| S=C(Nc1ccc(-c2nnc(S)o2)cc1)N1CCCCC1 | 28% | – |
| NC(=S)Nc1cccc(-c2nnc(SCC(=O)c3ccc(Cl)cc3Cl)o2)c1 | 0% | – |
| CN(C)C(=S)Nc1cccc(-c2nnc(SCC(=O)c3ccc(Cl)cc3)o2)c1 | 18% | – |
| C/C(=N/NC(=S)Nc1cccc(-c2nnc(S)o2)c1)c1ccccc1 | 20% | – |
| NNC(=S)Nc1ccc(-c2nnc(S)o2)cc1 [STEMAZOLE] | 0% | – |
| CN(C)C(=S)Nc1cccc(-c2nnc(SCC(=O)c3ccc4ccccc4c3)o2)c1 | 0% | – |
| NC(=S)Nc1ccc(-c2nnc(S)o2)cc1 | 70% | – |
